Earlier results as cited in US20200376001A1, “USE OF ANDROGEN FOR TREATING GASTROINTESTINAL DISORDERS” (priority 2012, published 2020).
Where two headings read alike, the source gives them in different places.

Tests used:
[1] = system: Sex Hormone Binding Globulin (SHBG); conditions: for decrease of SHBG (serum concentration): serum SHBG in the body after administration of synthetic androgen
[2] = compared with danazol
[3] = molecular target: T1, Sex Hormone Binding Globulin (SHBG) (Homo sapiens, UniProt P04278); conditions: greater than that of testosterone
T1 sequence (P04278 30-402): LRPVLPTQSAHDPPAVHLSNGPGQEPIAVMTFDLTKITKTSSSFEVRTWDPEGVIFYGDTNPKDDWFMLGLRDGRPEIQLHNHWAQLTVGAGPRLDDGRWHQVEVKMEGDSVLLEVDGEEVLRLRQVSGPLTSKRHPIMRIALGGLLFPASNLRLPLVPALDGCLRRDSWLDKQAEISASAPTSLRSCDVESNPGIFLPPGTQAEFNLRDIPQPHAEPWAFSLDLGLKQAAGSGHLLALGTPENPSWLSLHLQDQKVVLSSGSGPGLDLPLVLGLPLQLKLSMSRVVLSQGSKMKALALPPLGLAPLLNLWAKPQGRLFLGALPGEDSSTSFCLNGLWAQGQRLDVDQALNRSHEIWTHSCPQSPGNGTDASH

Row | SMILES | decrease of SHBG (serum concentration) [1] [%] | decrease of SHBG (serum concentration) ([1]; listed as Danazol) | potency mg for mg relative to danazol ([1]; SHBG reduction, relative to danazol) [times] | side effects and hirsutism [2] | affinity for SHBG relative to testosterone [3]
1 | C#C[C@]1(O)CC[C@H]2[C@@H]3CCC4=Cc5oncc5C[C@]4(C)[C@H]3CC[C@@]21C [danazol] | 80 | does this as well | – | – | –
2 | C[C@]12Cc3c[nH]nc3C[C@@H]1CC[C@@H]1[C@@H]2CC[C@@]2(C)[C@H]1CC[C@]2(C)O [stanozolol] | 80 | – | 100 | reduces side effects and hirsutism caused by danazol | –
3 | C[C@]12CC[C@H]3[C@@H](CCC4=CC(=O)CC[C@@H]43)[C@@H]1CC[C@@H]2O [Nandrolone, nandrolone] | – | – | – | – | about three
